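Briefly, cells in 96-well plates were exposed to five compound concentrations for 48 h, and endpoints were estimated by linear interpolation. At the GI50, growth is halved. TGI denotes the concentration required for complete inhibition of growth.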
What was measured:
Experiment in all cases: DTP human tumour cell line panel, 48 h
IGROV1 ovarian = tested on: IGROV1 ovarian
SR leukemia = tested on: SR leukemia
NCI-H23 lung = tested on: NCI-H23 lung
SK-OV-3 ovarian = tested on: SK-OV-3 ovarian
OVCAR-4 ovarian = tested on: OVCAR-4 ovarian
UACC-62 melanoma = tested on: UACC-62 melanoma
DU-145 prostate = tested on: DU-145 prostate
MOLT-4 leukemia = tested on: MOLT-4 leukemia
CCRF-CEM leukemia = tested on: CCRF-CEM leukemia
SNB-19 CNS = tested on: SNB-19 CNS
NCI-H226 lung = tested on: NCI-H226 lung
SK-MEL-28 melanoma = tested on: SK-MEL-28 melanoma
ACHN renal = tested on: ACHN renal
BT-549 breast = tested on: BT-549 breast
UACC-257 melanoma = tested on: UACC-257 melanoma
A549 NSCLC = tested on: A549 NSCLC
NCI-H460 lung = tested on: NCI-H460 lung
SN12C renal = tested on: SN12C renal
M14 melanoma = tested on: M14 melanoma
HCT-116 colon = tested on: HCT-116 colon
786-0 renal = tested on: 786-0 renal
K-562 leukemia = tested on: K-562 leukemia
OVCAR-8 ovarian = tested on: OVCAR-8 ovarian
U251 CNS = tested on: U251 CNS
MDA-MB-435 = tested on: MDA-MB-435
T-47D breast = tested on: T-47D breast
TK-10 renal = tested on: TK-10 renal
HOP-92 NSCLC = tested on: HOP-92 NSCLC
HOP-62 NSCLC = tested on: HOP-62 NSCLC
HCC-2998 colon = tested on: HCC-2998 colon
SF-295 CNS = tested on: SF-295 CNS
RXF 393 renal = tested on: RXF 393 renal
A498 renal = tested on: A498 renal
RPMI-8226 leukemia = tested on: RPMI-8226 leukemia
CAKI-1 renal = tested on: CAKI-1 renal
EKVX NSCLC = tested on: EKVX NSCLC
SK-MEL-2 melanoma = tested on: SK-MEL-2 melanoma
MDA-MB-231 breast = tested on: MDA-MB-231 breast
PC-3 prostate = tested on: PC-3 prostate
SF-268 CNS = tested on: SF-268 CNS
MCF7 breast = tested on: MCF7 breast
HCT-15 colon = tested on: HCT-15 colon
MALME-3M melanoma = tested on: MALME-3M melanoma
SW-620 colon = tested on: SW-620 colon
NCI/ADR-RES ovarian = tested on: NCI/ADR-RES ovarian
COLO 205 colon = tested on: COLO 205 colon
HL-60(TB) leukemia = tested on: HL-60(TB) leukemia
KM12 colon = tested on: KM12 colon
SNB-75 CNS = tested on: SNB-75 CNS
SF-539 CNS = tested on: SF-539 CNS
SK-MEL-5 melanoma = tested on: SK-MEL-5 melanoma
UO-31 renal = tested on: UO-31 renal
OVCAR-5 ovarian = tested on: OVCAR-5 ovarian
HS 578T breast = tested on: HS 578T breast
HT29 colon = tested on: HT29 colon
NCI-H522 lung = tested on: NCI-H522 lung

Cn1ccnc1C(=O)/C=C/C=C/c1ccc(C(=O)Nc2ccc(F)cc2)cc1 was tested, and the GI50 (IGROV1 ovarian) was 846 nM, the TGI (IGROV1 ovarian) was 2610 nM and the GI50 (SR leukemia) was 468 nM. The TGI (SR leukemia) was greater than 33300 nM, the GI50 (NCI-H23 lung) was 1040 nM and the TGI (NCI-H23 lung) was 4460 nM. The GI50 (SK-OV-3 ovarian) was 11000 nM, the TGI (SK-OV-3 ovarian) was greater than 33300 nM and the GI50 (OVCAR-4 ovarian) was 6060 nM. For the same compound, the TGI (OVCAR-4 ovarian) was greater than 33300 nM, the GI50 (UACC-62 melanoma) was 3480 nM and the TGI (UACC-62 melanoma) was 15400 nM. The GI50 (DU-145 prostate) was 1520 nM, the TGI (DU-145 prostate) was greater than 33300 nM and the GI50 (MOLT-4 leukemia) was 1020 nM. For the same compound, the TGI (MOLT-4 leukemia) was greater than 33300 nM, the GI50 (CCRF-CEM leukemia) was 731 nM and the TGI (CCRF-CEM leukemia) was greater than 33300 nM. The GI50 (SNB-19 CNS) was 2050 nM, the TGI (SNB-19 CNS) was greater than 33300 nM and the GI50 (NCI-H226 lung) was 2180 nM. For the same compound, the TGI (NCI-H226 lung) was 12800 nM, the GI50 (SK-MEL-28 melanoma) was 2410 nM and the TGI (SK-MEL-28 melanoma) was greater than 33300 nM. For the same compound, the GI50 (ACHN renal) was 1150 nM, the TGI (ACHN renal) was 5540 nM and the GI50 (BT-549 breast) was 1320 nM. For the same compound, the TGI (BT-549 breast) was 15100 nM, the GI50 (UACC-257 melanoma) was 14100 nM and the TGI (UACC-257 melanoma) was greater than 33300 nM. The GI50 (A549 NSCLC) was 5360 nM, the TGI (A549 NSCLC) was greater than 33300 nM and the GI50 (NCI-H460 lung) was 1940 nM. The TGI (NCI-H460 lung) was 10600 nM, the GI50 (SN12C renal) was 1540 nM and the TGI (SN12C renal) was 14200 nM. The GI50 (M14 melanoma) was 1930 nM, the TGI (M14 melanoma) was 28700 nM and the GI50 (HCT-116 colon) was 666 nM. The TGI (HCT-116 colon) was 1570 nM, the GI50 (786-0 renal) was 778 nM and the TGI (786-0 renal) was 1880 nM. It also gave a GI50 (K-562 leukemia) of 828 nM, a TGI (K-562 leukemia) greater than 33300 nM and a GI50 (OVCAR-8 ovarian) of 1200 nM. The TGI (OVCAR-8 ovarian) was greater than 33300 nM, the GI50 (U251 CNS) was 911 nM and the TGI (U251 CNS) was 8200 nM. It also gave a GI50 (MDA-MB-435) of 1070 nM, a TGI (MDA-MB-435) of 4450 nM and a GI50 (T-47D breast) of 2010 nM. For the same compound, the TGI (T-47D breast) was greater than 33300 nM, the GI50 (TK-10 renal) was 27700 nM and the TGI (TK-10 renal) was greater than 33300 nM. For the same compound, the GI50 (HOP-92 NSCLC) was 3140 nM, the TGI (HOP-92 NSCLC) was 20500 nM and the GI50 (HOP-62 NSCLC) was 8470 nM. The TGI (HOP-62 NSCLC) was greater than 33300 nM, the GI50 (HCC-2998 colon) was 2610 nM and the TGI (HCC-2998 colon) was 8770 nM. For the same compound, the GI50 (SF-295 CNS) was 9490 nM, the TGI (SF-295 CNS) was greater than 33300 nM and the GI50 (RXF 393 renal) was 711 nM. For the same compound, the TGI (RXF 393 renal) was 1920 nM, the GI50 (A498 renal) was 2600 nM and the TGI (A498 renal) was 26900 nM. The GI50 (RPMI-8226 leukemia) was 699 nM, the TGI (RPMI-8226 leukemia) was 2270 nM and the GI50 (CAKI-1 renal) was 3220 nM. It also gave a TGI (CAKI-1 renal) greater than 33300 nM, a GI50 (EKVX NSCLC) of 1260 nM and a TGI (EKVX NSCLC) of 12100 nM. For the same compound, the GI50 (SK-MEL-2 melanoma) was 17900 nM, the TGI (SK-MEL-2 melanoma) was greater than 33300 nM and the GI50 (MDA-MB-231 breast) was 1410 nM. For the same compound, the TGI (MDA-MB-231 breast) was greater than 33300 nM, the GI50 (PC-3 prostate) was 1260 nM and the TGI (PC-3 prostate) was greater than 33300 nM. The GI50 (SF-268 CNS) was 1540 nM, the TGI (SF-268 CNS) was greater than 33300 nM and the GI50 (MCF7 breast) was 917 nM. It also gave a TGI (MCF7 breast) greater than 33300 nM, a GI50 (HCT-15 colon) of 568 nM and a TGI (HCT-15 colon) of 1250 nM. For the same compound, the GI50 (MALME-3M melanoma) was 1290 nM, the TGI (MALME-3M melanoma) was 6580 nM and the GI50 (SW-620 colon) was 796 nM. It also gave a TGI (SW-620 colon) of 2040 nM, a GI50 (NCI/ADR-RES ovarian) of 2020 nM and a TGI (NCI/ADR-RES ovarian) greater than 33300 nM. For the same compound, the GI50 (COLO 205 colon) was 5610 nM, the TGI (COLO 205 colon) was greater than 33300 nM and the GI50 (HL-60(TB) leukemia) was 956 nM. For the same compound, the TGI (HL-60(TB) leukemia) was 7200 nM, the GI50 (KM12 colon) was 6790 nM and the TGI (KM12 colon) was greater than 33300 nM. For the same compound, the GI50 (SNB-75 CNS) was 1180 nM, the TGI (SNB-75 CNS) was 29300 nM and the GI50 (SF-539 CNS) was 858 nM. For the same compound, the TGI (SF-539 CNS) was 2440 nM, the GI50 (SK-MEL-5 melanoma) was 2650 nM and the TGI (SK-MEL-5 melanoma) was 12000 nM. It also gave a GI50 (UO-31 renal) of 1420 nM, a TGI (UO-31 renal) of 7160 nM and a GI50 (OVCAR-5 ovarian) of 1730 nM. For the same compound, the TGI (OVCAR-5 ovarian) was 16800 nM, the GI50 (HS 578T breast) was 2270 nM and the TGI (HS 578T breast) was greater than 33300 nM. It also gave a GI50 (HT29 colon) of 890 nM, a TGI (HT29 colon) of 2490 nM and a GI50 (NCI-H522 lung) of 1640 nM. The TGI (NCI-H522 lung) was 16800 nM.
